Values quoted from earlier work, collected in US20090005297A1 (priority 2004, published 2009).

Conditions: nonspecific PEGylation at amine groups with one or two 5 kDa PEG

Substance: variant aprotinin (T11 D, K15R, R17L, I18H, I19L, V34Y, R39L, K46E): variant aprotinin nonspecifically PEGylated at amine groups with one or two 5 kDa PEG (Stassen 1995)
- in vivo effectiveness: not improved
